Measurements taken from patent US8343509B2, “Methods and compositions for detection of bacteria and treatment of diseases and disorders” (priority 2008, dated 2013).
Read-outs that look alike come from different tables or passages of the source.

Experiments:
E. coli Nissle [1] = conditions: for tumor-to-organ ratio, heart / tumor-to-organ ratio, liver / tumor-to-organ ratio, muscle: PET
Protocol: The in vivo uptake of [^18F]-FDG and [^18F]-FEAU by administered EcN bacteria was studied using a mouse tumor model and imaged by positron emission tomography (PET) scanning.
At two weeks post tumor cell implantation (tumor diameter >5 mm), the EcN bacteria (4×10^6 CFU in 100 μl PBS) were administered systemically by lateral tail vein injection into the tumor bearing mice. Control mice were injected with 100 μl PBS via tail vein.
Prior to tracer administration, [^18F]-FDG or [^18F]-FEAU, the animals were starved 12 h and kept under anesthesia between tracer injection and imaging. In the [^18F]-FDG experimental group of mice (n=6 for each time point), each animal was injected intravenously by tail vein with 9.25 MBq (250 μCi) of [^18F]-FDG at either 16 or 72 hours after administration of EcN. Control mice received 9.25 MBq (250 μCi) of [^18F]-FDG following administration of PBS. [^18F]-FDG FDG PET scanning was performed 1 h after tracer administration using a 10 minute list mode acquisition.
In the [^18F]-FEAU experimental group of mice (n=8 for each time point), each animal was injected intravenously by tail vein with 9.25 MBq (250 μCi) of [^18F]-FEAU at either 16 or 72 hours after administration of EcN. Control mice received 9.25 MBq (250 μCi) of [^18F]-FEAU following administration of 100 μl PBS. [^18F]-FDG PET scanning was performed 2 h after tracer administration using a 10 minute list mode acquisition.
Imaging was performed using a Focus 120 microPET™ dedicated small-animal PET scanner (Concorde Microsystems Inc, Knoxyille, Tenn.). Mice were maintained under 2% isofluorane anesthesia with an oxygen flow rate of 2 l/min during the entire scanning period. Three-dimensional (3D) list-mode data were acquired using an energy window of 350-700 keV for ^18F and 410-580 keV for ^124I, respectively and a coincidence timing window of 6 ns. […] Transverse images were reconstructed by filtered back-projection using a ramp filter with a cut-off frequency equal to the Nyquist frequency in a 128×128×94matrix comprised of 0.866×0.866×0.866-mm voxels. The image data were corrected for (a) non-uniformity of scanner response using a uniform cylinder source-based normalization, (b) dead time count losses using a singles count rate-based global correction, (c) physical decay to the time of injection, and (d) the ^124I branching ratio. There was no correction applied for attenuation, scatter or partial-volume averaging. The count rates in the reconstructed images were converted to activity concentration (% of injected dose per gram of tissue, % ID/g) using a system calibration factor (μCi/ml/cps/voxel) derived from imaging of a rat-size phantom filled with a uniform aqueous solution of ^18F.
PET image analysis was performed using ASIPro™ software (Concorde Microsystems Inc., Knoxyille, Tenn.). For each PET scan, regions of interest (ROIs) were manually drawn over tumor, liver, skeletal muscle and heart.

[2] = tested on: Escherichia coli Nissle 1917 (EcN); experiment: In vitro tracer uptake into E. coli Nissle culture (gamma counter); format: cell-based; conditions: 0.925 MBq tracer, culture grown at 37° C. for 4 hours
Protocol: An overnight culture of EcN was diluted 1:50 into 5 ml fresh LB-broth, supplemented with 0.925 MBq (25 μCi) of [^18F]-FDG or [^18F]-FEAU. The cultures were grown at 37° C. for 4 hours. The bacteria were harvested by centrifugation, washed twice with PBS and the radioactivity in the pelleted bacteria and medium was measured in a gamma counter (Packard, United Technologies, Downers Grove, Ill.).

E. coli Nissle [3] = experiment: [18F]-FEAU uptake by tissue sampling, tumor-to-organ radioactivity ratios; format: in vivo, mice; conditions: after EcN administration, p<0.02
Protocol: In vivo uptake of [^18F]-FEAU was measured in a separate experiment by measurement of tumor-to-organ (liver, spleen, heart and lung) [^18F]-FEAU radioactivity ratios via tissue sampling. […] Euthanized mice were rinsed with 100% ethanol prior to tissue removal. Organs, including liver, lung, spleen and heart, were sampled and weighed before radioactivity was measured. Tumor tissue was weighed and homogenized in 1 ml PBS. Serial dilutions of the homogenized sample were plated on L-arabinose containing LB-agar plates. […] The remaining tumor suspension and organ samples were assayed for radioactivity in a gamma counter (Packard, United Technologies, Downers Grove, Ill.). [^18F]-FEAU radioactivity (% ID/g) in the samples was determined and tumor-to-organ ratios calculated. To assess the correlation between radioactivity and scintillation counter measurements, the Pearson correlation coefficient was computed.

E. coli Nissle [4] = conditions: in the absence of bacteria
Source text: Using the data obtained in Example 2 for in vivo [^18F]-FEAU uptake, tumor radioactivity (% ID/g), corrected for background radioactivity, was plotted against the number of bacterial colony forming units per gram for each of the tumors imaged.

E. coli Nissle [5] = experiment: In vivo [124I]-FIAU PET distribution over time in 4T1 xenograft mice
Protocol: Mice bearing 4T1 xenografts were generated as described in Example 2. Prior to intravenous administration of ^[124I]-FIAU, three mice were injected with EcN-bacteria and 3 mice with PBS (control). 37 MBq (1000 μCi) of [^124I]-FIAU was injected into each animal intravenously 72 h after bacterial injection. Potassium iodide was used to block the uptake of radioactive iodine by the thyroid. Imaging of [^124I]-FIAU uptake by PET was obtained 4, 8, 12, 24, 48 and 72 h after tracer administration with 10 minute list acquisition at the 4 h and 8 h imaging time points, 15 minute at the 12 h time point, 30 minute at 24 h time point and 60 minute at the 48 h and 72 h time points. After tracer administration and between imaging time points, the animals were allowed to awake and maintain normal husbandry.

[6] = 4T1 tumors, without/prior to EcN injection
[7] = tracer 16 h after EcN injection
[8] = tracer 72 h after EcN injection

Row | SMILES | enhancement of the tracer signal (tumor-to-organ ratios post-EcN vs pre-EcN) (E. coli Nissle [1]; 16 h after EcN injection) [fold] | enhancement of the tracer signal (tumor-to-organ ratios post-EcN vs pre-EcN) (E. coli Nissle [1]; 72 h after EcN injection) [fold] | tumor-to-organ ratio, heart (E. coli Nissle [1]; [6]) | tumor-to-organ ratio, liver (E. coli Nissle [1]; [6]) | tumor-to-organ ratio, muscle (E. coli Nissle [1]; [6]) | tumor-to-organ ratio, heart (E. coli Nissle [1]; [7]) | tumor-to-organ ratio, liver (E. coli Nissle [1]; [7]) | tumor-to-organ ratio, muscle (E. coli Nissle [1]; [7]) | tumor-to-organ ratio, heart (E. coli Nissle [1]; [8]) | tumor-to-organ ratio, liver (E. coli Nissle [1]; [8]) | tumor-to-organ ratio, muscle (E. coli Nissle [1]; [8]) | enrichment of radioactivity within EcN-bacteria compared to the remaining LB-broth [2] [fold] | uptake in tumors (E. coli Nissle [1]; in the absence of EcN injection) | tumor to organ ratio (liver, spleen, heart, lung) by tissue sampling (E. coli Nissle [3]) | accumulation in 4T1 xenografts (E. coli Nissle [4]) | background radioactivity in PET images (E. coli Nissle [5]; 4 and 8 h acquisition time points) | tumor/background ratios (E. coli Nissle [5]; 48 and 72 h after tracer, EcN-treated animals) | enrichment in the bacteria-treated tumors versus control tumors (E. coli Nissle [5]; tracer 72 h after bacterial injection) [fold]
1 | OC[C@H]1OC(O)[C@H]([18F])[C@@H](O)[C@@H]1O (stereo partly drawn) [[^18F]-FDG, 2′-[^18F]fluoro-2′deoxy-D-glucose] | ~1.7 | ~1.4 | 0.23±0.12 | 1.6±0.4 | 3.3±0.7 | 0.31±0.8 | 2.6±0.5 | 5.4±1.1 | 0.31±0.17 | 2.2±0.8 | 4.3±1.2 | 120 |  |  |  |  |  | 
2 | CCc1cn([C@@H]2O[C@H](CO)[C@@H](O)[C@@H]2[18F])c(=O)[nH]c1=O [[^18F]-FEAU, 2′-[^18F]fluoro-2′deoxy-1-β-D-arabinofuranosyl-5-ethyl-uracil] | ~1.6 | ~2.1 | 1.4±0.3 | 1.4±0.3 | 1.7±0.4 | 2.1±0.6 | 2.0±0.7 | 2.6±0.8 | 2.9±0.8 | 2.4±0.8 | 3.0±1.3 | 6.5 | much lower than that of [^18F]-FDG | increased significantly | near background levels |  |  | 
3 | O=c1[nH]c(=O)n([C@@H]2O[C@H](CO)[C@@H](O)[C@@H]2F)cc1I [[^124I]-FIAU, 5-iodo-2′-fluoro-2′deoxy-1-β-D-arabino-furanosyl-uracil] |  |  |  |  |  |  |  |  |  |  |  |  |  |  | low levels above background | very high background radioactivity | greater than 5 | 2.5
